Source: the supplement of paper PMC11061612

How the values were obtained:
Assay in all cases: Bliss excess, mean over the matrix (fraction); higher = more synergy
[1] = test system: SUP-HD1 (Hodgkin's Lymphoma)
In short: (§1)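 Cell lines in DMEM/F12 or RPMI with 10% FBS were plated in 1536-well plates, held 24 hours at 37°C, 5% CO2, then given two-drug dose matrices for 72 hours (DMSO typically 0.2%). Viability was read by CellTiter-Glo 2.0 luminescence and scaled as inhibition from 0 (vehicle wells) to 1 (blank wells). Combination Emax is the second-highest inhibition in the matrix; Bliss excess is observed combination effect minus expected EA + EB − EA·EB, EA and EB being single-agent effects.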

[2] = test system: SBC-5 (Small Cell Lung Carcinoma)
In short: as §1

[3] = test system: L-363 (Plasma Cell Myeloma)
In short: as §1

[4] = test system: BC-1 (B-Cell Non-Hodgkin's Lymphoma)
In short: as §1

[5] = test system: SBC-3 (Small Cell Lung Carcinoma)
In short: as §1

[6] = test system: NCI-H2009 (Lung Adenocarcinoma)
In short: as §1

[7] = test system: MRK-nu-1 (Breast Carcinoma)
In short: as §1

[8] = test system: ATN-1 (T-Lymphoblastic Leukemia)
In short: as §1

[9] = test system: Daudi (Burkitt's Lymphoma)
In short: as §1

[10] = test system: JJN-3 (Plasma Cell Myeloma)
In short: as §1

[11] = test system: HT-3 (Cervical Carcinoma)
In short: as §1

[12] = test system: NCI-H1648 (Lung Adenocarcinoma)
In short: as §1

[13] = test system: GRANTA-519 (B-Cell Non-Hodgkin's Lymphoma)
In short: as §1

[14] = test system: NCI-H1944 (Lung Adenocarcinoma)
In short: as §1

[15] = test system: COR-L105 (Lung Adenocarcinoma)
In short: as §1

NCI-H2452 (Mesothelioma) = test system: NCI-H2452 (Mesothelioma)
In short: as §1

[16] = test system: RPMI-8402 (T-Lymphoblastic Leukemia)
In short: as §1

SK-N-DZ (Neuroblastoma) = test system: SK-N-DZ (Neuroblastoma)
In short: as §1

[17] = test system: C2BBe1 (Colorectal Carcinoma)
In short: as §1

[18] = test system: NCI-H1975 (Lung Adenocarcinoma)
In short: as §1

| Structure (SMILES) | Bliss excess [1] | Bliss excess [2] | Bliss excess [3] | Bliss excess [4] | Bliss excess [5] | Bliss excess [6] | Bliss excess [7] | Bliss excess [8] | Bliss excess [9] | Bliss excess [10] | Bliss excess [11] | Bliss excess [12] | Bliss excess [13] | Bliss excess [14] | Bliss excess [15] | Bliss excess (NCI-H2452 (Mesothelioma)) | Bliss excess [16] | Bliss excess (SK-N-DZ (Neuroblastoma)) | Bliss excess [17] | Bliss excess [18] |
| --- | --- | --- | --- | --- | --- | --- | --- | --- | --- | --- | --- | --- | --- | --- | --- | --- | --- | --- | --- | --- |
| Cn1cnc2c(F)c(Nc3ccc(Br)cc3Cl)c(C(=O)NOCCO)cc21 [Selumetinib] + C[C@@H]1COCCN1C2=NC(=NC(=C2)C3(CC3)[S@](=N)(=O)C)C4=C5C=CNC5=NC=C4 [AZD6738] (first compound max 10 µM, 7x7, partner max 10 µM) | -0.0549 | 0.0096 | -0.0207 | -0.0612 | -0.081 | -0.0313 | -0.0317 | -0.024 | 0.0042 | 0.0533 | 0.063 | -0.0259 | 0.0067 | 0.01 | 0.0306 | -0.0476 | -0.0196 | -0.0083 | -0.052 | 0.0316 |
| CCc1c2c(nc3ccc(O)cc13)-c1cc3c(c(=O)n1C2)COC(=O)[C@]3(O)CC [SN-38] + CN(C)CCCOc1ccc(-c2ccc3ncc4c(c3c2)n(C2CCOCC2)c(=O)n4C)cn1 [AZD0156] (first compound max 0.3 µM, 7x7, partner max 1 µM) | -0.0579 | 0.0245 | 0.0206 | 0.0158 | -0.0894 | 0.126 | -0.0534 | 0.0407 | 0.0078 | 0.0183 | 0.0499 | -0.0451 | -0.0359 | -0.0343 | -0.0799 | -0.0197 | 0.073 | 0.0604 | -0.0179 | 0.006 |
| COc1cccc(OCCCN)c1-c1cc(Nc2cnc(C#N)cn2)n[nH]1 [Prexasertib] + Cc1cc2ncnn2cc1Nc1ncc2c(n1)n(C1CCOCC1)c(=O)n2C [AZD7648] (first compound max 1 µM, 7x7, partner max 10 µM) | -0.0443 | -0.0116 | -0.0437 | -0.0239 | -0.0512 | -0.027 | -0.0258 | 0.0136 | 0.0017 | -0.0097 | -0.0098 | -0.0609 | -0.0489 | -0.0028 | -0.0549 | -0.0623 | -0.0127 | -0.0049 | 0.0318 | 0.041 |
| CCN(CCO)CCCOc1ccc2c(Nc3cc(CC(=O)Nc4cccc(F)c4)[nH]n3)ncnc2c1 [AZD2811] + O=C(c1cc(Cc2n[nH]c(=O)c3ccccc23)ccc1F)N1CCN(C(=O)C2CC2)CC1 [Olaparib] (first compound max 1 µM, 7x7, partner max 10 µM) | 0.111 | 0.033 | 0.0025 | -0.0401 | 0.0475 | 0.0113 | -0.0037 | -0.0849 | 0.104 | 0.0422 | 0.008 | -0.0179 | 0.0274 | 0.0069 | -0.0311 | -0.0675 | -0.0279 | -0.0696 | -0.0112 | 0.0034 |
| CC1(C)CCC(CN2CCN(c3ccc(C(=O)NS(=O)(=O)c4ccc(NCC5CCOCC5)c([N+](=O)[O-])c4)c(Oc4cnc5[nH]ccc5c4)c3)CC2)=C(c2ccc(Cl)cc2)C1 [Venetoclax] + C[C@@H]1COCCN1C2=NC(=NC(=C2)C3(CC3)[S@](=N)(=O)C)C4=C5C=CNC5=NC=C4 [AZD6738] (first compound max 1 µM, 7x7, partner max 10 µM) | -0.0605 | -0.0486 | 0.0331 | 0.0087 | -0.0906 | -0.0357 | -0.0003 | -0.0216 | -0.0278 | 0.067 | -0.0419 | -0.0262 | 0.0342 | -0.0023 | -0.0429 | -0.0034 | 0.0103 | -0.0396 | -0.0092 | -0.0391 |
| CCN(CCO)CCCOc1ccc2c(Nc3cc(CC(=O)Nc4cccc(F)c4)[nH]n3)ncnc2c1 [AZD2811] + C=CCn1c(=O)c2cnc(Nc3ccc(N4CCN(C)CC4)cc3)nc2n1-c1cccc(C(C)(C)O)n1 [AZD1775] (first compound max 1 µM, partner max 1 µM) | -0.0238 | 0.114 | -0.0312 | -0.031 | 0.11 | 0.0477 | 0.0147 | 0.0053 | 0.0733 | -0.0233 | -0.0176 | -0.0388 | -0.013 | 0.0422 | -0.0415 | -0.0387 | -0.0544 | -0.0289 | 0.024 | 0.0001 |
| CC1(C)CCC(CN2CCN(c3ccc(C(=O)NS(=O)(=O)c4ccc(NCC5CCOCC5)c([N+](=O)[O-])c4)c(Oc4cnc5[nH]ccc5c4)c3)CC2)=C(c2ccc(Cl)cc2)C1 [Venetoclax] + COc1cc(Nc2ncc3c(n2)-c2ccc(Cl)cc2C(c2c(F)cccc2OC)=NC3)ccc1C(=O)O [Alisertib] (first compound max 1 µM, 7x7, partner max 10 µM) | 0.0776 | 0.024 | -0.0115 | -0.0492 | 0.0101 | 0.0023 | 0.129 | -0.013 | -0.0718 | 0.45 | -0.0262 | 0.0579 | 0.438 | -0.0192 | -0.0741 | 0.0053 | -0.0525 | 0.077 | -0.0271 | -0.0453 |
| CN(C)CCCOc1ccc(-c2ccc3ncc4c(c3c2)n(C2CCOCC2)c(=O)n4C)cn1 [AZD0156] + C=CCn1c(=O)c2cnc(Nc3ccc(N4CCN(C)CC4)cc3)nc2n1-c1cccc(C(C)(C)O)n1 [AZD1775] (first compound max 1 µM, partner max 1 µM) | -0.0392 | -0.018 | 0.0057 | -0.0006 | -0.0451 | -0.0695 | -0.0082 | 0.0198 | -0.0243 | -0.0271 | -0.023 | -0.0468 | -0.0268 | -0.0218 | -0.0414 | -0.0253 | 0.0026 | -0.0179 | 0.0003 | 0.017 |
| CN(CCO)CC[C@H](CSc1ccccc1)Nc1ccc(S(=O)(=O)NC(=O)c2ccc(N3CCC([C@@H](O)c4ccccc4-c4ccc(Cl)cc4)CC3)cc2)cc1S(=O)(=O)C(F)(F)F [AZD4320] + C1CN(CCC1(C(=O)N[C@@H](CCO)C2=CC=C(C=C2)Cl)N)C3=NC=NC4=C3C=CN4 [Capivasertib] (first compound max 1 µM, 7x7, partner max 3 µM) | -0.022 | -0.0207 | 0.0659 | -0.0342 | -0.0793 | -0.0467 | -0.0681 | -0.0802 | -0.0512 | -0.0265 | -0.0593 | -0.067 | -0.0649 | -0.0508 | -0.0378 | -0.0757 | 0.0394 | -0.0417 | -0.0214 | -0.0459 |
| Cc1c2c(nn1C)CSCc1cc(n(C)n1)CSc1cc(c3ccccc3c1)OCCCc1c(C(=O)O)n(C)c3c-2c(Cl)ccc13 [AZD5991] + C[C@@H](Nc1cc(F)cc(F)c1)c1cc(C(=O)N(C)C)cc2c(=O)cc(N3CCOCC3)oc12 [AZD8186] (first compound max 1 µM, 7x7, partner max 3 µM) | -0.0414 | 0.0033 | -0.0476 | -0.0042 | -0.0341 | -0.0076 | 0.0152 | -0.0131 | 0.0234 | -0.0448 | 0.0217 | -0.0508 | -0.0444 | -0.0141 | -0.0864 | 0.0441 | 0.0272 | -0.0328 | -0.026 | -0.0203 |
| Cn1cnc2c(F)c(Nc3ccc(Br)cc3Cl)c(C(=O)NOCCO)cc21 [Selumetinib] + CC(C)n1c(=O)n(C)c2cnc3cc(F)c(-c4ccc(OCCCN5CCCCC5)nc4)cc3c21 [AZD1390] (first compound max 10 µM, 7x7, partner max 0.3 µM) | -0.043 | -0.0404 | -0.0252 | -0.0023 | -0.0592 | -0.0254 | 0.0225 | -0.0318 | -0.02 | 0.0046 | -0.0392 | -0.0418 | -0.0254 | -0.0306 | 0.0019 | -0.0732 | -0.039 | -0.0207 | -0.05 | -0.0473 |
| NC1(C(=O)N[C@@H](CCO)c2ccc(Cl)cc2)CCN(c2ncnc3[nH]ccc23)CC1 [Capivasertib] + CC(=O)c1c(C)c2cnc(Nc3ccc(N4CCNCC4)cn3)nc2n(C2CCCC2)c1=O [Palbociclib] (first compound max 10 µM, 7x7, partner max 10 µM) | -0.0643 | 0.0352 | -0.0413 | 0.0026 | 0.0265 | -0.0054 | 0.001 | -0.0217 | 0.0065 | -0.0257 | -0.0182 | -0.0039 | -0.0273 | 0.02 | 0.0532 | -0.02 | -0.0296 | 0.0628 | -0.0094 | -0.0456 |
